One experiment concerns souris ob/ob. Nature of the experiment: Hypoglycaemic activity in a non-insulin-dependent diabetes (NIDDM) model, ob/ob mouse. Conditions: ob/ob mice; for minimal effective dose: read-out: DMA (dose minimum active montrant une diminution de la glycémie de 10 à 15 %); for Pouvoir hypoglycémiant: at the equi-effective dose of Table 1, 4 days oral, base 100; for Dose provoquant le même effet hypoglycémiant: oral, daily for 4 days, glycaemia at J0 and J5, dose giving the same hypoglycaemic effect (base 100). It is filed as in vivo. The text has this: Les animaux (souris ob/ob) sont traités chaque jour, pendant 4 jours, en administrant par voie orale les composés de l'invention en suspension dans une solution à 20 % de gomme du Sénégal. Avant et après traitement, soit à J₀ et à J₅, le sang est prélevé par ponction du sinus orbital et la glycémie est déterminée. Le tableau 1 présente les doses des différents produits à administrer pour obtenir le même effet hypoglycémiant (base 100).
L'étude d'un effet-dose montre que la dose donnant une diminution de la glycémie initiale de 30 % : ED₃₀ pour le composé de l'exemple 2 est inférieure à 0,1 mg/kg alors que celle de la pioglitazone est comprise entre 5 et 10 mg/kg. La dose minimum active : DMA montrant une diminution de la glycémie de 10 à 15 % est de 0,1 mg/kg pour le composé de l'exemple 2 alors qu'elle est de 3 mg/kg pour la pioglitazone.

For the next experiment, the system named is rats Zucker Fa/Fa mâles. Nature of the experiment: Model of decreased glucose tolerance with hyperinsulinaemia and hyperlipaemia, male Zucker Fa/Fa rats. Particulars: 5 mg/kg/day oral for 10 days, blood on day 11, control = 100; for AGL (%): free fatty acids; for TG (%): triglycerides. Format: in vivo. Here is the method:
Les animaux (rats Zucker Fa/Fa mâles) sont traités, chaque jour, pendant 10 jours en administrant, par voie orale, les composés de l'invention à la dose de 5 mg/kg/jour en suspension dans une solution à 20 % de gomme du Sénégal. Le 11ème jour, les animaux sont sacrifiés et le sang recueilli afin de déterminer la glycémie, les triglycérides plasmatiques et l'insuline immuno-réactive. D'autre part, les animaux sont pesés avant et après traitement.
Dans ces conditions, les composés de l'invention n'ont pas d'influence sur le taux de glucose circulant mais diminuent le taux de triglycérides et d'acides gras libres plasmatiques ainsi que celui de l'insuline immuno-réactive. Cette activité est égale ou supérieure à celle d'autres dérivés de thiazolidinedione de référence.

The mark [1] stands for this setting: Mus musculus, po, dose-effect study.

With `O=C1NC(=O)C(Cc2ccc3oc(Cc4ccc5ccccc5c4)cc3c2)S1` (racemic) [Exemple 2, 5-[2-(2-Naphtylméthyl)-5-benzofuranylméthyl] thiazolidine-2,4-dione], in the experiment with souris ob/ob (setting [1]), the minimal effective dose worked out at 0.1 mg/kg. The ED30 in the experiment with souris ob/ob (Mus musculus, po, dose-effect study, read-out: ED30 (dose donnant une diminution de la glycémie initiale de 30 %)) is less than 0.1 mg/kg. For the same compound, in the experiment with souris ob/ob, the “Pouvoir hypoglycémiant” value stood at 100 and the “Dose provoquant le même effet hypoglycémiant” value is 5-10 mg/kg/jour. In the experiment on rats Zucker Fa/Fa mâles, the “Glycémie (%)” value came to 97%, the “Plasma insuline (%)” value amounted to 50%, the “AGL (%)” value came to 48% and the “TG (%)” value was 35%.

With `Cc1c(C)c2c(c(C)c1O)CCC(C)(COc1ccc(CC3SC(=O)NC3=O)cc1)O2` (stereo not drawn) [CS 045], in the experiment with souris ob/ob, the “Pouvoir hypoglycémiant” value stood at 100 and the “Dose provoquant le même effet hypoglycémiant” value is given as 150-200 mg/kg/jour.

For the compound `CC1(COc2ccc(CC3SC(=O)NC3=O)cc2)CCCCC1` (stereo not drawn) [Ciglitazone], in the experiment on souris ob/ob, the “Pouvoir hypoglycémiant” value is recorded as 100 and the “Dose provoquant le même effet hypoglycémiant” value is 50-100 mg/kg/jour.

As to `O=C1NC(=O)C(Cc2ccc3c(c2)CC[C@H](Cc2ccccc2)O3)S1` (stereo partly drawn) [Englitazone], in the experiment on souris ob/ob, the “Pouvoir hypoglycémiant” value was found to be 100 and the “Dose provoquant le même effet hypoglycémiant” value is reported as 10-20 mg/kg/jour.

Regarding `CCc1ccc(CCOc2ccc(CC3SC(=O)NC3=O)cc2)nc1` (stereo not drawn) [Pioglitazone], in the experiment on souris ob/ob (setting [1]), the minimal effective dose turned out to be 3 mg/kg. In addition, in the experiment on souris ob/ob, the “Pouvoir hypoglycémiant” value stood at 100 and the “Dose provoquant le même effet hypoglycémiant” value was found to be 10 mg/kg/jour. For the same compound, in the experiment on rats Zucker Fa/Fa mâles, the “Glycémie (%)” value was 103%, the “Plasma insuline (%)” value was found to be 61%, the “AGL (%)” value came out at 52% and the “TG (%)” value is on record as 44%.

The values are drawn from patent EP0559571A1, “Thiazolidine-2,4-dione derivatives, process for their preparation and pharmaceutical compositions containing them” (ADIR ET COMPAGNIE, priority 1992, dated 1993).
